The assay relates to isolated perfused rat hearts. Nature of the assay: Isolated perfused rat heart (modified Langendorff) global ischemia/reperfusion injury. To be noted: 5 μM for 5 min prior to 30 min global ischemia and for first 5 min of 45 min reperfusion; compared to untreated control I/R hearts; n=7.

Molecules are shown by their SMILES.

Turning to `Oc1ccc2c3c1O[C@H]1c4[nH]c5ccccc5c4C[C@@]4(O)[C@@H](C2)N(CC2CC2)CC[C@]314` [naltrindole], the “infarct size (TTC staining at end of reperfusion)” value is recorded as “reduced infarct size” and the “post-reperfused cardiac function (+dP/dtmax, -dP/dtmin, LVDP, LVEDP)” value is “significantly restored”.

Source of the values: patent US20220110315A1, “SOLUTIONS AND METHODS FOR ORGAN PRESERVATION” (priority 2019, published 2022).
